{"source": "paper PMC10350924", "about": "“Design, Synthesis, and Pharmacological Characterization of a Potent Soluble Epoxide Hydrolase Inhibitor for the Treatment of Acute Pancreatitis” (Journal of Medicinal Chemistry, 2023)", "key": {"sEH": {"tested_on": "sEH", "settings": "cited from earlier work"}, "[1]": {"tested_on": "cerulein-induced acute pancreatitis", "assay": "Cerulein-induced acute pancreatitis in mice", "format": "in vivo", "settings": "10 mg/kg i.p. 0.5 and 2.5 h after first cerulein injection; 6 h", "description": "Male CD-1 mice (33–39 g, 8 weeks, Charles River Laboratories; Calco, Italy) were fed with standard rodent chow and water and acclimated for 4 days at a 12 h light and 12 h dark schedule in a constant air-conditioned environment (21 ± 2 °C). The mice were randomly assigned to groups, and experiments were carried out during the light phase. Experimental procedures were conducted in conformity with Italian (D.L. 26/2014) and European (directive 2010/63/EU) regulations on the protection of animals used for scientific purposes and approved by the Italian Ministry. Acute pancreatitis (AP) was induced in mice by intraperitoneal (i.p.) injections of cerulein (50 μg/kg) hourly (5 times).[56] The groups were: (a) Sham group which received saline i.p. hourly (×5); […] The mice were killed 6 h after the first cerulein injection. Blood samples were obtained by direct intracardiac puncture. Pancreases and lungs were removed immediately, frozen, and stored at −80 °C until assayed. Portions of these organs were also fixed in formaldehyde for histological and immunohistochemical examination. Pancreas and lung sections (6 μm) were stained for hematoxylin & eosin (H&E). Evaluation of pancreas edema and inflammation signs were performed with a three-point scoring system. […] Analysis was performed in a blinded manner. Evaluation of lung edema and inflammatory infiltration was performed with three-point scoring system: 0, absent; 1, mild; 2, moderate; 3, severe. […] Tissue sections were then incubated with normal goat serum (Vector Laboratories, Newark, California) for 20 min to reduce nonspecific antibody interactions. Sections were incubated with primary antibody diluted in 0.01 M PBS, 2.5% normal serum (anti-Neutrophils rat monoclonal antibody, dilution 1:100, Abcam) for 30 min. After rinsing with PBS 0.01 M for 5 min, slides were incubated with biotinylated goat anti-rat IgG (Vector Laboratories, Newark, California), diluted 1:200, for 30 min. After rinsing with PBS 0.01 M for 5 min, slides were incubated with VECTASTAIN ABC Reagent (Vector Laboratories, Newark, California) for 30 min. Color development was performed using […] 3,3′-diaminobenzidine solution (Sigma-Aldrich, Milan, Italy), and sections were analyzed using Leica Microsystem with a magnification of 20x. Semiquantitative determination of protein expression was obtained with ImageJ/Fiji software. Liver injury was assessed by measuring the rise in plasma levels of alanine aminotransferase (ALT, a specific marker for hepatic parenchymal injury) and aspartate aminotransferase (AST, a nonspecific marker for hepatic injury) 6 h after cerulein injection by a clinical laboratory. Results are expressed in international units per milliliter."}}}
{"molecule": "O=C(Nc1ccc2c(c1)CCN2Cc1ccc(F)cc1)NC1CCCCC1", "note": "[Compound 53]", "values": [{"measurement": "sEH inhibitory potency in words (Figure 1)", "setting": "sEH", "value": "high sEH inhibitory potency"}]}
{"molecule": "O=C(O)CCCCCCCCCCCNC(=O)NC12CC3CC(CC(C3)C1)C2", "note": "[AUDA, reference compound]", "values": [{"measurement": "pancreatic injury (edema, cell infiltration, neutrophil numbers)", "setting": "[1]", "value": "reduced pancreatic injury"}]}
